Results as given in the supplement of paper PMC11208160.

Assay: recombinant UMI read abundance after kanamycin selection (control-corrected) (log10(CPM+1)); higher = more efficient recombination; extreme values may be limits of the assay; sequences stand for … in AGTGCAGAGAAAATCGGCCAGTTTTCTCTGCCTGCAGTCCGCATGCCGTGGGACCCCTTGGGTTCTAACCTGTTGCCTAGATTTATGCAGCGGACTGCCTTTCTCCCAAAGTGATAAACCGG…AGGTTGGTTTCACT; site = the 11-nt donor
Procedure, shortened: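 Values, expressed as log10(CPM+1), derive from recombinant UMI counts converted to CPM, averaged across replicates and scaled by control-derived factors. Plating was with IPTG (0.07 mM) plus kanamycin or unselected, two replicates each. The screen pooled donor and donor-binding-loop pairs for the IS621 bridge recombinase in Escherichia coli.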
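Also: IS621 bridge recombinase in Escherichia coli cells against a fixed T5 target plasmid.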

| Sequence | recombinant UMI read abundance (log10) |
| --- | --- |
| TACACTTCATGGACCGGTTTTCCCGGTAATCCGTATTTGGC (site TACACTTCTGC) | 0 |
| TACAGGCCATGGACCGGTTTTCCCGGTAATCCGTATTTGAC (site TACAGGCCTGT) | 0 |
| TACATCTCATGGACCGGTTTTCCCGGTAATCCGTATTTGTG (site TACATCTCTCA) | 0.976 |
| TACATGACATGGACCGGTTTTCCCGGTAATCCGTATTTGCT (site TACATGACTAG) | 2.15 |
| TACATGACATGGACCGGTTTTCCCGGTAATCCGTATTTGCT (site TACCTGACTAG) | 0.938 |
| TACATGACATGGACCGGTTTTCCCGGTAATCCGTATTTGCT (site TACGTGACTAG) | 0.566 |
| TACATGACATGGACCGGTTTTCCCGGTAATCCGTATTTGCT (site TACTTGACTAG) | 0.0568 |
| TACCCTGCATGGACCGGTTTTCCCGGTAATCCGTATTTGCA (site TACCCTGCTTG) | 0 |
| TACCGAACATGGACCGGTTTTCCCGGTAATCCGTATTTGGA (site TACCGAACTTC) | 0.277 |
| TACCTTACATGGACCGGTTTTCCCGGTAATCCGTATTTGCG (site TACCTTACTCG) | 0.0203 |
| TACGATGCATGGACCGGTTTTCCCGGTAATCCGTATTTGCT (site TACGATGCTAG) | 1.98 |
| TACGCCACATGGACCGGTTTTCCCGGTAATCCGTATTTGAG (site TACGCCACTCT) | 0.652 |
| TACGGTACATGGACCGGTTTTCCCGGTAATCCGTATTTGGT (site TACGGTACTAC) | 0.321 |
| TACGTTTCATGGACCGGTTTTCCCGGTAATCCGTATTTGCC (site TACGTTTCTGG) | 1.7 |
| TACTAATCATGGACCGGTTTTCCCGGTAATCCGTATTTGGG (site TACTAATCTCC) | 0.0128 |
| TACTCAGCATGGACCGGTTTTCCCGGTAATCCGTATTTGGA (site TACTCAGCTTC) | 0.619 |
| TACTCCGCATGGACCGGTTTTCCCGGTAATCCGTATTTGTC (site TACTCCGCTGA) | 2.18 |
| TACTGACCATGGACCGGTTTTCCCGGTAATCCGTATTTGGA (site TACTGACCTTC) | 0.0192 |
| TACTGACCATGGACCGGTTTTCCCGGTAATCCGTATTTGGG (site TACTGACCTCC) | 0.0283 |

| Sequence | recombinant UMI read abundance (log10) |
| --- | --- |
| TAGAATACATGGACCGGTTTTCCCGGTAATCCGTATTTGCA (site AAGAATACTTG) | 0.559 |
| TAGAATACATGGACCGGTTTTCCCGGTAATCCGTATTTGCA (site CAGAATACTTG) | 0.572 |
| TAGAATACATGGACCGGTTTTCCCGGTAATCCGTATTTGCA (site GAGAATACTTG) | 0.196 |
| TAGAATACATGGACCGGTTTTCCCGGTAATCCGTATTTGCA (site TAAAATACTTG) | 0.792 |
| TAGAATACATGGACCGGTTTTCCCGGTAATCCGTATTTGCA (site TACAATACTTG) | 0.745 |
| TAGAATACATGGACCGGTTTTCCCGGTAATCCGTATTTGCA (site TAGAAAACTTG) | 0.00693 |
| TAGAATACATGGACCGGTTTTCCCGGTAATCCGTATTTGCA (site TAGAACACTTG) | 0 |
| TAGAATACATGGACCGGTTTTCCCGGTAATCCGTATTTGCA (site TAGAAGACTTG) | 0.00484 |
| TAGAATACATGGACCGGTTTTCCCGGTAATCCGTATTTGCA (site TAGAATACTAG) | 0 |
| TAGAATACATGGACCGGTTTTCCCGGTAATCCGTATTTGCA (site TAGAATACTCG) | 0 |
| TAGAATACATGGACCGGTTTTCCCGGTAATCCGTATTTGCA (site TAGAATACTGG) | 0 |
| TAGAATACATGGACCGGTTTTCCCGGTAATCCGTATTTGCA (site TAGAATACTTA) | 0 |
| TAGAATACATGGACCGGTTTTCCCGGTAATCCGTATTTGCA (site TAGAATACTTC) | 0.0185 |
| TAGAATACATGGACCGGTTTTCCCGGTAATCCGTATTTGCA (site TAGAATACTTG) | 2.18 |
| TAGAATACATGGACCGGTTTTCCCGGTAATCCGTATTTGCA (site TAGAATACTTT) | 0 |
| TAGAATACATGGACCGGTTTTCCCGGTAATCCGTATTTGCA (site TAGAATCCTTG) | 0 |
| TAGAATACATGGACCGGTTTTCCCGGTAATCCGTATTTGCA (site TAGAATGCTTG) | 0 |
| TAGAATACATGGACCGGTTTTCCCGGTAATCCGTATTTGCA (site TAGAATTCTTG) | 0 |
| TAGAATACATGGACCGGTTTTCCCGGTAATCCGTATTTGCA (site TAGACTACTTG) | 0.486 |

| Sequence | recombinant UMI read abundance (log10) |
| --- | --- |
| TAGAATACATGGACCGGTTTTCCCGGTAATCCGTATTTGCA (site TAGAGTACTTG) | 0.446 |
| TAGAATACATGGACCGGTTTTCCCGGTAATCCGTATTTGCA (site TAGATTACTTG) | 0.00714 |
| TAGAATACATGGACCGGTTTTCCCGGTAATCCGTATTTGCA (site TAGCATACTTG) | 0.783 |
| TAGAATACATGGACCGGTTTTCCCGGTAATCCGTATTTGCA (site TAGGATACTTG) | 1.71 |
| TAGAATACATGGACCGGTTTTCCCGGTAATCCGTATTTGCA (site TAGTATACTTG) | 1.34 |
| TAGAATACATGGACCGGTTTTCCCGGTAATCCGTATTTGCA (site TATAATACTTG) | 0.633 |
| TAGAATACATGGACCGGTTTTCCCGGTAATCCGTATTTGCA (site TCGAATACTTG) | 0.00888 |
| TAGAATACATGGACCGGTTTTCCCGGTAATCCGTATTTGCA (site TGGAATACTTG) | 0 |
| TAGAATACATGGACCGGTTTTCCCGGTAATCCGTATTTGCA (site TTGAATACTTG) | 0.27 |
| TAGACTTCATGGACCGGTTTTCCCGGTAATCCGTATTTGGT (site TAGACTTCTAC) | 1.64 |
| TAGACTTCATGGACCGGTTTTCCCGGTAATCCGTATTTGGT (site TAGCCTTCTAC) | 0.0272 |
| TAGACTTCATGGACCGGTTTTCCCGGTAATCCGTATTTGGT (site TAGGCTTCTAC) | 0.329 |
| TAGACTTCATGGACCGGTTTTCCCGGTAATCCGTATTTGGT (site TAGTCTTCTAC) | 0.175 |
| TAGAGAACATGGACCGGTTTTCCCGGTAATCCGTATTTGAG (site TAGAGAACTCT) | 1.87 |
| TAGAGCCCATGGACCGGTTTTCCCGGTAATCCGTATTTGCG (site TAGAGCCCTCG) | 0.457 |
| TAGAGTCCATGGACCGGTTTTCCCGGTAATCCGTATTTGTA (site TAAAGTCCTTA) | 0.546 |
| TAGAGTCCATGGACCGGTTTTCCCGGTAATCCGTATTTGTA (site TACAGTCCTTA) | 0.159 |
| TAGAGTCCATGGACCGGTTTTCCCGGTAATCCGTATTTGTA (site TAGAGTCCTTA) | 1.37 |
| TAGAGTCCATGGACCGGTTTTCCCGGTAATCCGTATTTGTA (site TATAGTCCTTA) | 0.132 |
